Data: patent US10906913B2, “NMDA receptor modulators and uses thereof” (Northwestern University, priority 2008, dated 2021)
“Also recorded” adds a separate entry of the source. Where two headings read alike, the source gives them in different places. Peptide text beside a SMILES is read from it.

What was measured:
NMDA receptor [1] = biological target: T1, NMDA receptor (Rattus norvegicus, UniProt P35439); assay: NMDA receptor-gated single neuron conductance (INMDA) in hippocampal CA1 pyramidal neurons; type: cell-based; conditions: for enhancement of INMDA compared among the tested compounds: comparison of compound B, AK-51, AK-52
T1 construct: NMDA receptor-gated single neuron conductance (INMDA) in hippocampal CAI pyramidal neurons; from tissue; host or cells: in vitro hippocampal slices, CA1 pyramidal neurons
Excerpt: (§1) The effects of the three compounds were examined on 1) NMDA receptor-gated single neuron conductance (INMDA) in hippocampal CAI pyramidal neurons and 2) the magnitude of long-term potentiation (LTP) and long term depression (LTD) at Schaffer collateral CA1 synapses, in in vitro hippocampal slices.

[2] = system: Schaffer collateral-CA1 synapses; assay: Long-term potentiation (LTP) at Schaffer collateral-CA1 synapses, in vitro hippocampal slices; type: cell-based; conditions: for magnitude of LTP: high frequency stimulus; for magnitude / induction of LTP: concentration not given
Excerpt: as §1

[3] = system: Schaffer collateral-CA1 synapses; assay: Long term depression (LTD) at Schaffer collateral-CA1 synapses, in vitro hippocampal slices; type: cell-based; conditions: 1 μM; low frequency stimulus 2 Hz/10 min
Excerpt: as §1

rats = assay: Alternating T-maze learning task; type: in vivo, rat; conditions: 60 min before testing
Description: Male 3 month old Fisher 344 X Brown Norway F1 cross rats (FBNF1) were used for this study. The t-maze was constructed with arms (45 cm long×10 cm wide×10 cm high) made of black Plexiglas enclosing the maze. Two plastic bottle caps, lined with wire mesh, were secured to the end of each goal arm in which the food reward (Cheerios, 100 mg/piece) was placed. Before the start of training, animals were gradually deprived of food to approximately 85% of their free feeding weight. On three successive days before the start of training, animals were habituated to the t-maze with food located throughout the maze. […] On the subsequent testing day, animals were given injections of AK51 (0.3, 1, 3, 10, 30 mg/kg p.o.), or DMSO vehicle (1 mg/ml; Sigma, Saint Louis Mo.) in a blind manner via gastric gavage (4″, 16-ga; Braintree Scientific, Braintree Mass.) 60 min prior to the start of testing (n=8-9 per group. On the first trial of testing, both arms were baited with food and for the subsequent 20 trials only alternating choices (opposite of the animal's previous choice) were rewarded (˜30 sec inter-trial interval). The number of trials to criterion (5 consecutive correct choices) was calculated for each animal. Data was analyzed by ANOVA followed by Fisher PLSD post hoc tests comparing individual drug doses to vehicle (α=0.05). […]

Glutamate, AMPA = assay: Binding assay, Glutamate, AMPA; set-up: species or system rat; conditions: 10 μM
Excerpt: (§2) Table B depicts the results of binding assays against various targets with AK51: […]

Glutamate, Kainate = assay: Binding assay, Glutamate, Kainate; set-up: species or system rat; conditions: 10 μM
Excerpt: as §2

[4] = biological target: Glutamate, Metabotropic, mGlus (Homo sapiens, UniProt P41594); assay: Binding assay, Glutamate, Metabotropic, mGlus
Sequence of Glutamate, Metabotropic, mGlus (P41594 21-1212): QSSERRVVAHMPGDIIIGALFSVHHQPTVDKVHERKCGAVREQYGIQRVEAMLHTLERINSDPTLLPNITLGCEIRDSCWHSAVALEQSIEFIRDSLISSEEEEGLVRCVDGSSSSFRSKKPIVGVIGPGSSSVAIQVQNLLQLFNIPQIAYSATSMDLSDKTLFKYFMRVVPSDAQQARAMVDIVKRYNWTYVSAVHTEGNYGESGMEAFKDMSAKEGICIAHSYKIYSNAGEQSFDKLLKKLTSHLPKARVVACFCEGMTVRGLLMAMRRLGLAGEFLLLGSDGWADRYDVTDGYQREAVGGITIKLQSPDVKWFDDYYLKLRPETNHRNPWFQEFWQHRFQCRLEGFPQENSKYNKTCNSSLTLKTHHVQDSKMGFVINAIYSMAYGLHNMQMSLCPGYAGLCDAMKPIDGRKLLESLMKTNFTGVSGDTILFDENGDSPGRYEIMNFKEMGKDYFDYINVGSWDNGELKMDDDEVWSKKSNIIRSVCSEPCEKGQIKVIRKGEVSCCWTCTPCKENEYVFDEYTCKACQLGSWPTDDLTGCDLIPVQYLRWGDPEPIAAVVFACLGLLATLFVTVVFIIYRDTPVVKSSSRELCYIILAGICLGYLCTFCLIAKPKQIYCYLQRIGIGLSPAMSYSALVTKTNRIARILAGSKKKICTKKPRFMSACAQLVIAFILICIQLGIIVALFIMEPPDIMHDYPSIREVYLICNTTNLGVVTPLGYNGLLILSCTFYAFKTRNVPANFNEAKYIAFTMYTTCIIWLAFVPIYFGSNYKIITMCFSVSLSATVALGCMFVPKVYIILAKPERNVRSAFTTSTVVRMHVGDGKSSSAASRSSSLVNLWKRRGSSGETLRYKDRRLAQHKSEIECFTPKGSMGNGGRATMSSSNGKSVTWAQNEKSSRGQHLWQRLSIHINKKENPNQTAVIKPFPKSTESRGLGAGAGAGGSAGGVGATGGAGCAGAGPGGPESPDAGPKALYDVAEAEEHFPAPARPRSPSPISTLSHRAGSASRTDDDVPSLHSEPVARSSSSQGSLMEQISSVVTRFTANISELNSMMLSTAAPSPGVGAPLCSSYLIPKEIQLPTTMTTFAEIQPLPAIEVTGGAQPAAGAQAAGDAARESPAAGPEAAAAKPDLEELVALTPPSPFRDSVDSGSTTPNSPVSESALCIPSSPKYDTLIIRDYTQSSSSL
Excerpt: as §2

Glutamate, NMDA, Agonism = assay: Binding assay, Glutamate, NMDA, Agonism; set-up: species or system rat; conditions: 10 μM
Excerpt: as §2

Glutamate, NMDA, Glycine = Glutamate, NMDA, Glycine (Rattus norvegicus, UniProt P35439); assay: Binding assay, Glutamate, NMDA, Glycine
Excerpt: as §2

[5] = biological target: Glutamate, NMDA, Phencyclidine (Rattus norvegicus, UniProt P35439); assay: Binding assay, Glutamate, NMDA, Phencyclidine
Excerpt: as §2

[6] = biological target: Glutamate, NMDA, Polyamine (Rattus norvegicus, UniProt P35439+Q00960); assay: Binding assay, Glutamate, NMDA, Polyamine
Sequence of Glutamate, NMDA, Polyamine (Q00960 27-1482, other chains not shown): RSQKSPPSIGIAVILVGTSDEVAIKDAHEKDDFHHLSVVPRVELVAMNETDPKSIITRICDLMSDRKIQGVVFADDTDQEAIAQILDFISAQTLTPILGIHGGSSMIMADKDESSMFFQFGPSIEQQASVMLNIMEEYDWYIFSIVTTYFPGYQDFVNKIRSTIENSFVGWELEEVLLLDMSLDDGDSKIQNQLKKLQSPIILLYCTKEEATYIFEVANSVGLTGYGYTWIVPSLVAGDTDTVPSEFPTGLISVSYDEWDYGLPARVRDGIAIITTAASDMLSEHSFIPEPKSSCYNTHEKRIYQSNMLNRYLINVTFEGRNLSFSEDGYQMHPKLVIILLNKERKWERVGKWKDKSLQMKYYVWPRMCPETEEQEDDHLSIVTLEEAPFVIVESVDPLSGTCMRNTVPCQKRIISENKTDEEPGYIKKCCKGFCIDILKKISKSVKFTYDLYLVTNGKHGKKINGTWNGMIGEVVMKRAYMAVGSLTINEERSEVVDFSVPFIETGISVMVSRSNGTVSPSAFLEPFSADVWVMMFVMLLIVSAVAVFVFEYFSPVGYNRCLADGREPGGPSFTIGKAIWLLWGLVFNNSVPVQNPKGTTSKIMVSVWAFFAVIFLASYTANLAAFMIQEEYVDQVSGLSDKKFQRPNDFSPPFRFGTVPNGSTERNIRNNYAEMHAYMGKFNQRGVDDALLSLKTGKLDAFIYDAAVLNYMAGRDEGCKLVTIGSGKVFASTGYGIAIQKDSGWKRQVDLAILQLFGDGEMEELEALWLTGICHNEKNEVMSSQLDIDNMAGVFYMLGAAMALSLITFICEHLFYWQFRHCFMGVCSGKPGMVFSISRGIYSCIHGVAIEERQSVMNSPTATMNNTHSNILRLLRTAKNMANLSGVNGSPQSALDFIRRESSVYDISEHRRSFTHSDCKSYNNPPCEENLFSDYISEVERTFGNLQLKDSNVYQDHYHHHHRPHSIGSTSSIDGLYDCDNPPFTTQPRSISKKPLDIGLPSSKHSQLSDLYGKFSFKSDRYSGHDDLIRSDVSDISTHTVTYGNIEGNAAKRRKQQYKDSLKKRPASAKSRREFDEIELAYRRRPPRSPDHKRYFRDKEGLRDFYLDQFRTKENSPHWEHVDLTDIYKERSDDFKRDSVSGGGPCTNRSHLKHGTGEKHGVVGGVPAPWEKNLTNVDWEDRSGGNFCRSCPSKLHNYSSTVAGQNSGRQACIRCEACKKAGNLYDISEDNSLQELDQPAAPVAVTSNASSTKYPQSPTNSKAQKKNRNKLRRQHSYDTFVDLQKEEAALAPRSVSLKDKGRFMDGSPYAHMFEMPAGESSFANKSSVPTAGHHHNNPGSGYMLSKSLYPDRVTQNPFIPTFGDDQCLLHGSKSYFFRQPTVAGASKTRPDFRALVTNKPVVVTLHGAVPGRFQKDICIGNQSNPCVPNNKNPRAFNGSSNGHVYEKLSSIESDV
Excerpt: as §2

Glutamate, Non-Selective = assay: Binding assay, Glutamate, Non-Selective; set-up: species or system rat; conditions: 10 μM
Excerpt: as §2

[7] = system: Glycine, Strychnine-Sensitive; assay: Binding assay, Glycine, Strychnine-Sensitive; set-up: species or system rat; conditions: 10 μM
Excerpt: as §2

NMDA receptor [8] = biological target: T1, NMDA receptor; conditions: cited from earlier work
[9] = system: Schaffer collateral-CA1 synapses; conditions: cited from earlier work
[10] = system: Schaffer collateral-CA1 synapses; conditions: cited from earlier work; remark: listed apart in the source

Structure (SMILES): CC(O)C(NC(=O)OCc1ccccc1)C(=O)N1CC2(CCCN2C(=O)OCc2ccccc2)C1=O (stereo not drawn) [AK-52]
- single shock evoked INMDA (NMDA receptor [1]; 100 nM): mild enhancement
- single shock evoked INMDA (NMDA receptor [1]; 100 nM, listed as AK52): enhancement
- single shock evoked INMDA (NMDA receptor [1]; 1 μM): significant reduction
- single shock evoked INMDA (NMDA receptor [1]; 1 μM, listed as AK52): marked reduction
- enhancement of INMDA compared among the tested compounds (NMDA receptor [1]): weakest enhancer
- magnitude of LTP ([2]; 100 nM): enhancement
- magnitude of LTP ([2]; 1 μM): slight, but significant, reduction
- magnitude / induction of LTP [2]: selectively enhances
- LTD [3]: without altering; also recorded: did not affect

Structure (SMILES): O=C1NCC12CCCN2 (stereo not drawn) [AK-51]
- NMDA current (normalized pharmacologically-isolated NMDA receptor-gated current) (NMDA receptor [1]; 100 nM and 1 μM, 20 min bath application, whole-cell recording): enhances
- single shock evoked INMDA (NMDA receptor [1]; 100 nM, listed as NRX-10,051): enhanced; also recorded: marked enhancement
- single shock evoked INMDA (NMDA receptor [1]; 1 μM): enhancement
- single shock evoked INMDA (NMDA receptor [1]; 1 μM, listed as NRX-10,051): enhanced
- enhancement of INMDA compared among the tested compounds (NMDA receptor [1]): less potency than compound B; also recorded: smaller in magnitude
- magnitude of LTP ([2]; 100 nM): Enhancement
- magnitude of LTP ([2]; 1 μM, listed as AK5151): Enhancement
- magnitude of LTP ([2]; 1 μM, listed as NRX-10,051): doubled the magnitude
- magnitude / induction of LTP [2]: enhances
- LTD [3]: not altering
- learning behavior in the T-maze test (rats; 1.0 mg/kg by mouth, P<0.001): statistically significant enhancement
- learning behavior in the T-maze test (rats; 3.0 mg/kg by mouth, P<0.01): statistically significant enhancement
- % Inhibition (Glutamate, AMPA): −8%
- % Inhibition (Glutamate, Kainate): −13%
- inhibition at 10 µM [4]: -7%
- % Inhibition (Glutamate, NMDA, Agonism): 27%
- inhibition at 10 µM (Glutamate, NMDA, Glycine): -6%
- inhibition at 10 µM [5]: -5%
- inhibition at 10 µM [6]: -14%
- % Inhibition (Glutamate, Non-Selective): −10%
- % Inhibition [7]: 4%

Structure (SMILES): C[C@@H](O)[C@H](N)C(=O)N1CCC[C@H]1C(=O)N1CCC[C@H]1C(=O)N[C@H](C(N)=O)[C@@H](C)O [GLYX-13] (H-TPPT-NH2)
- burst INMDA (NMDA receptor [8]; 100 μM): reducing
- burst-activated INMDA (NMDA receptor [8]; 1-10 μM): enhancement
- single pulse evoked INMDA (NMDA receptor [8]; 1-10 μM): reducing
- INMDA mediated by NMDA receptors containing NR2A/B subunits (NMDA receptor [8]): selectively enhance
- LTP ([9]; 100 μM): reducing
- LTP ([9]; 1-10 μM): enhancement
- simultaneous effect on LTP and LTD [9]: simultaneously increase LTP and reduce LTD
- LTD ([10]; 100 μM): no longer affected
- LTD ([10]; 1-10 μM): reducing
